{"source": "patent US20240285702A1", "about": "“Compositions comprising a cannabinoid and uses thereof” (Cannabotech Ltd., priority 2021, published 2024)", "origin": "cited, not measured here", "data": [{"smiles": "C=C(C)[C@@H]1CCC(C)=C[C@H]1c1c(O)cc(CCCCC)cc1O", "note": "[CBD, 2-[(1R,6R)-6-isopropenyl-3-methylcyclohex-2-en-1-yl]-5-pentylbenzene-1,3-diol]", "values": [{"measurement": "Log P", "value": 5.8}, {"measurement": "water solubility", "value": 0.7, "unit": "µg/mL"}]}]}
